In the NIST ThermoML archive (doi:10.1016/j.jct.2018.08.035):
± gives the expanded uncertainty stated by the source.

Details: 298.15 K; 101.33 kPa; Liquid; Vibrating tube method

CCC(O)CC [3-pentanol]
mass density: 815.8 ± 1.7 kg/m3

C[N+](=O)[O-] [nitromethane]
mass density: 1131.1 ± 2.3 kg/m3
